Read-outs that look alike come from different tables or passages of the source.
How the values were obtained:
Human TrxR = details: 30 nM enzyme, 20 µM substrate; after 10 min enzyme-NADPH-gold complex preincubation; read-out: IC50 Human TrxR, substrate hTrxC72S; cited from earlier work
[1] = system: Leishmania donovani LV9 intramacrophage amastigotes; test: L. donovani LV9 intramacrophage amastigotes; type: cell-based; details: read-out: Leishmania Donovani LV9 Intramacrophage Amastigotes IC50 (µm) ± SD
Experimental: In vitro anti-leishmanial evaluation was perfomed on both axenic and intramacrophage L. donovani amastigotes as previously described. […] Briefly, compounds were distributed in 96-well plates using 2-fold dilutions in 100 µL PYG medium. A. castellanii trophozoites were added to each well at 5 × 10^4 amoeba/mL in 200 µL final volume. L. donovani axenic amastigotes were added to each well at 10^6 parasites/mL in 200 µL final volume. After 72 h incubation at 27 °C, 20 µL of 1 mM resazurin was added to each well and further incubated at 27 °C for 8 h for A. castellanii and for 24 h for L. donovani axenic amastigotes. In living cells, resazurin is reduced in resorufin. This conversion is monitored by measuring the absorbance at specific wavelengths of resorufin (570 nm) and resazurin (600 nm) using a microplate reader (Labsystems Multiskan MS, McLean, VA, USA). In this assay, the activity was expressed in IC50. Miltefosine and pentamidine were used as reference drugs. All experiments were performed in three independent experiments.

[2] = system: T. b. brucei Squib-427 strain; test: Anti-trypanosomal activity, T. b. brucei trypomastigotes (resazurin); type: cell-based, Trypanosoma brucei brucei; details: 72 h
Experimental: Anti-trypanosomal activity: T. b. brucei Squib-427 strain (suramin-sensitive) and T. b. gambiense (ITMAP/1893) were cultured at 37 °C and 5% CO2 in HMI-9 medium supplemented with 10% FCS [90]. About 10^4 trypomastigotes/well were added to each well and parasite growth was assessed after 72 h at 37 °C by adding resazurin and reading at ex 550 nm, em 590 nm. Suramin was included as reference drug for T. b. brucei and pentamidine for T. b. gambiense.

RAW 264.7 macrophages = test: Cytotoxicity on RAW 264.7 macrophages; type: cell-based, murine; details: 48 h incubation; read-out: Cytotoxicity on RAW 264.7 Macrophages CC50 (µM) ± SD
Experimental: Cytotoxicity was evaluated on RAW 264.7 macrophages that were maintained at 37 °C with 5% CO2 in Dulbecco’s Modified Eagle’s Medium (DMEM, Invitrogen, Toulouse, France) supplemented with 100 U/mL penicillin-streptomycin (Invitrogen) and 10% heat-inactivated fetal bovine serum, as previously described. Briefly, cells were plated in 96-well microplates at a density of 2 × 10^4 cells per well. After incubation for 24 h at 37 °C in 5% CO2, the medium was removed from each well and 100 µL of medium containing 2-fold serial dilutions of compounds was added to each well. After 48 h incubation at 37 °C in 5% CO2, 10 µL of 450 µM resazurin was added to each well and further incubated in the dark for 4 h. Cell viability was determined as described above. The cytotoxicity of the compounds was expressed as CC50.

[3] = system: L. infantum MHOM/MA (BE)/67 amastigotes; test: Anti-leishmanial activity, L. infantum amastigotes in primary peritoneal mouse macrophages; type: cell-based, Leishmania infantum; details: amastigotes in primary peritoneal mouse macrophages, 5 days; read-out: Leishmania infantum IC50 (µM) ± SD
Experimental: Anti-leishmanial activity: L. infantum MHOM/MA (BE)/67 amastigotes were collected from the spleen of an infected donor hamster and used to infect primary peritoneal mouse macrophages grown in a 96-well plate. After 2 days outgrowth, 5 × 10^5 amastigotes were added to each well and incubated for 2 h at 37 °C. The compounds were subsequently added and the plates were further incubated for 5 days at 37 °C and 5% CO2. Parasite burdens (mean number of amastigotes/macrophage) were microscopically assessed on 500 cells after Giemsa staining and expressed as a percentage of the blank controls. Miltefosine was included as reference drug. The use of laboratory rodents was carried out in accordance to all mandatory guidelines (EU directives, including the Revised Directive 2010/63/EU on the Protection of Animals used for Scientific Purposes that came into force on 1 January 2013, and the declaration of Helsinki in its latest version) and was approved by the Ethical Committee of the University of Antwerp, Belgium [UA-ECD 2011–77 (17-02-2012 and UA-ECD 2015-90].

[4] = system: adult female B. pahangi worms; test: Adult in vitro Brugia pahangi motility assay (Worminator); type: cell-based; details: for Inhibition of Motility (%) Day 1 / Inhibition of Motility (%) Day 2 / Inhibition of Motility (%) Day 3 / Inhibition of Motility (%) Day 6: female B. pahangi, n = 4 worms; for IC50: adult female Brugia pahangi, worminator motility assay, six-point serial dilution
Experimental: Adult in vitro Brugia pahangi assay: Adult female B. pahangi worms were kindly provided by Dr. Brenda Beerntsen, University of Missouri, Columbia, MO. Individual female worms were assayed in 500 μL of culture medium (RPMI-1640 with 25 mM HEPES, 2.0 g/L NaHCO3, 5% heat-inactivated FBS and antibiotic/antimycotic solution) in 24-well plates. Worms treated with 1% DMSO served as negative control and there were four replicates per compound. Worms were maintained at 37 °C in a 5% CO2 incubator for the duration of the assay. Individual worm movement was assessed from day 1–6 using the Worminator [55], which reports worm motility as mean movement units (MMU), a measure of pixels displaced. MMUs are then used to calculate percent inhibition of worm motility compared to control worms.

## CC(=O)OCC1OC([S][Au][PH]2(c3ccccc3)C(c3ccccn3)=CC=C2c2ccccn2)C(OC(C)=O)C(OC(C)=O)C1OC(C)=O [GoPI-sugar, 1-thio-β-D-glucopyranose 2,3,4,6-tetraacetato-S-Au{1-phenyl-2,5-di(2-pyridyl)phosphole}]
Human TrxR
  IC50: 0.0043 ± 0.0016 µM
[1]
  IC50: 0.42 ± 0.15 µM
[2]
  IC50: 1.83 µM
RAW 264.7 macrophages
  CC50: 4.35 ± 0.04 µM
[3]
  IC50: 2.38 µM
[4]; 1 μM
  Inhibition of Motility (%) Day 1: 20%
  Inhibition of Motility (%) Day 2: 16%
  Inhibition of Motility (%) Day 3: 22%
  Inhibition of Motility (%) Day 6: 48%
[4]; 3 μM
  Inhibition of Motility (%) Day 1: 24%
  Inhibition of Motility (%) Day 2: 41%
  Inhibition of Motility (%) Day 3: 40%
  Inhibition of Motility (%) Day 6: 96%
[4]; 10 μM
  Inhibition of Motility (%) Day 1: 91%
  Inhibition of Motility (%) Day 2: 98%
  Inhibition of Motility (%) Day 3: 100%
  Inhibition of Motility (%) Day 6: 99%
[4]; read-out: IC50 (µM) Day 2
  IC50: 2.8 µM
[4]; read-out: IC50 (µM) Day 3
  IC50: 3.9 µM
[4]; read-out: IC50 (µM) Day 6
  IC50: 1.7 µM
